Experimental data as given in patent US20240409558A1, “IRREVERSIBLE INHIBITORS OF KRAS” (BIOMEA FUSION, INC., priority 2021, published 2024).

What follows are molecules tested on human KRAS G12C mutated cell line MIA PaCa-2 (assay: Inhibition of proliferation of MIA PaCa-2 cells (CellTiter-Glo, 7 day)). Conditions: 168 h, Table 2, CellTiter-Glo luminescence read on day 7, read-out: MIA PaCa-2 IC50.
Format: cell-based
Source text: The present example evaluates the ability of compounds provided herein to inhibit proliferation of KRAS mutant cells.
The proliferation inhibitory effect was investigated in the human KRAS G12C mutated cell line MIA PaCa-2 (Yunis et al., 1977, Int. J. Cancer 19(1):128-135; ATCC catalog no. CRL-1420). Cells were maintained in RPMI-1640 medium (ThermoFisher catalog no. 61870036) supplemented with 10% of Heat Inactivated FBS (ThermoFisher catalog no. A31605) and 1% Pen-Strep (ThermoFisher catalog no. 10378016) and cultured at 37° C. in a humidified incubator with 5% CO2. Cell lines were grown by adhering to culture flasks, and the cells were maintained in a range 70%-80% confluency.
ATP is present in all metabolically active cells and is considered as a marker for cell viability and proliferation. Metabolic cell activity was determined using the CellTiter-Glo kit (Promega catalog no. G7572), an ATP monitoring system based on the production of luminescence by the reaction of ATP with added UltraGlo® recombinant luciferase (Kawano et al., 2016, PLOS One, 8; 11(7):e0158888), according to the supplier's experimental recommendations. The assay was based on a 96 well plate format.
Test compounds were dissolved at 10 mM in DMSO (Sigma catalog no. D8418; purity >99.9%) and stored at −20° C. Eight concentrations of test compound were assessed in duplicate in an individual test occasion in parallel in the selected cell lines. MRTX-849 and AMG-510 were used as reference compounds and tested in duplicate at eight concentrations. 100% of proliferation is represented by the untreated cells (0.2% DMSO).
(§1) On the day of the experiment (TO), cells were detached with TrypLE (ThermoFisher catalog no. 12604054) and quantified using the Vi-CELL XR Cell Viability (Beckman Coulter) analyzer and diluted with fresh medium to obtain the cell density of about 1000 cells per 200 μL medium. 200 μL of cell suspension were added into wells in the 96 well plate.
After 2 hours from seeding cells, compounds were added using a D300e compound dispenser (Tecan Trading AG) at desired concentrations with shaking between each compound dispensed. Cell plates containing 200 μL/well were incubated at 37° C. in a humidified incubator with 5% CO2.
On day T3, 150 μL of growth media per well were removed from plates containing the samples, 150 uL fresh growth media were added to each well, and fresh compounds were added using a D300e compound dispenser (Tecan Trading AG) at desired concentrations with shaking between each compound dispensed. Cell plates containing 200 uL/well were incubated at 37° C. in a humidified incubator with 5% CO2. On day T7 plates containing the samples were equilibrated at room temperature for approximately 15 min, and then 40 μL/well of the Promega CellTiterGlo® reagent was added. Contents were mixed for 30 minutes on an orbital shaker to induce cell lysis. Luminescence was read using a Synergy Neo 2 (Agilent Technologies.
Data was expressed as % of inhibition compared to the 0.2% DMSO negative control, and is calculated as follows: % inhibition=100−[(RLU sample)×100/(RLU controls*)], where * indicates the average for 0.2% DMSO. […]
as §1, with “12604054),” for “12604054) and”, “resuspended in” for “diluted with”, “at a” for “to obtain the”, “to each well of a” for “into wells in the”
Two hours after seeding cells, compounds were added at desired concentrations using a D300e compound dispenser (Tecan Trading AG) with shaking after each compound addition. Assay plates were incubated at 37° C. in a humidified incubator with 5% CO2.
On day 3 (T3) 150 μL of medium from assay plates were removed. 150 μL fresh medium and compounds were added at desired concentrations using a D300e compound dispenser (Tecan Trading AG) with shaking after each compound addition. […]

Compound | IC50
Oc1cc(Cl)c(C2CC2)c(-c2ccc3c(N4C[C@H]5CC[C@@H](C4)N5)nc(OC[C@@]45CCCN4C[C@H](F)C5)nc3c2F)c1 [Compound 201, 3-(4-((1R,5S)-3,8-diazabicyclo[3.2.1]octan-3-yl)-8-fluoro-2-(((2R,7aS)-2-fluorotetrahydro-1H-pyrrolizin-7a(5H)-yl)methoxy)quinazolin-7-yl)-5-chloro-4-cyclopropylphenol] | 0.358 µM

Same assay, conditions: 168 h, Table 3, 7 day, mean, read-out: MIA PaCa-2 IC50 (μM) 7 day Mean

IC50 | Compound
0.00443 µM | C=CC(=O)N1CCC(c2nc(OC[C@@]34CCCN3C[C@H](F)C4)nc3c(F)c(-c4cc(O)cc5ccc(F)c(F)c45)ncc23)C[C@H]1C (stereo in doubt) [Compound 334, 1-[(2R)-4-[7-(7,8-difluoro-3-hydroxy-1-naphthyl)-8-fluoro-2-[[(2R,8S)-2-fluoro-1,2,3,5,6,7-hexahydropyrrolizin-8-yl]methoxy]pyrido[4,3-d]pyrimidin-4-y1]-2-methyl-1-piperidyl]prop-2-en-1-one]
> 1 µM | C=CC(=O)N1CCN(c2nc(OC[C@@]34CCCN3C[C@H](F)C4)nc3cc(-c4cc(O)cc(Cl)c4C4CC4)c(F)cc23)CC12CC2 [Compound 317, 1-[7-[7-(3-chloro-2-cyclopropyl-5-hydroxy-phenyl)-6-fluoro-2-[[(2R,8S)-2-fluoro-1,2,3,5,6,7-hexahydropyrrolizin-8-yl]methoxy]quinazolin-4-yl]-4,7-diazaspiro[2.5]octan-4-yl]prop-2-en-1-one]
> 1 µM | C=CC(=O)N1CCC2(c3nc(OC[C@@]45CCCN4C[C@H](F)C5)nc4c(F)c(-c5cc(O)cc6ccccc56)ncc34)CC2C1 (stereo partly drawn) [Compound 310, 1-[6-[8-fluoro-2-[[(2R,8S)-2-fluoro-1,2,3,5,6,7-hexahydropyrrolizin-8-yl]methoxy]-7-(3-hydroxy-1-naphthyl)pyrido[4,3-d]pyrimidin-4-yl]-3-azabicyclo[4.1.0]heptan-3-yl]prop-2-en-1-one]
0.00664 µM | C=CC(=O)N1CCC(c2nc(OC[C@@]34CCCN3C[C@H](F)C4)nc3c(F)c(-c4cc(O)cc5ccc(F)c(F)c45)ncc23)CC1 [Compound 330]
0.0373 µM | C=CC(=O)N1CCC(c2nc(OC[C@@]34CCCN3C[C@H](F)C4)nc3c(F)c(-c4cc(O)cc5ccc(F)c(F)c45)ncc23)C[C@@H]1C (stereo partly drawn) [Compound 331, 1-[(2S)-4-[7-(7,8-difluoro-3-hydroxy-1-naphthyl)-8-fluoro-2-[[(2R,8S)-2-fluoro-1,2,3,5,6,7-hexahydropyrrolizin-8-yl]methoxy]pyrido[4,3-d]pyrimidin-4-y1]-2-methyl-1-piperidyl]prop-2-en-1-one]
> 1 µM | C=CC(=O)N1CCN(c2nc(OC[C@@]34CCCN3C[C@H](F)C4)nc3cc(-c4cccc5cccc(Cl)c45)c(F)cc23)CC12CC2 [Compound 323]

Compound | IC50
C=CC(=O)N1C2CCC1CN(c1cc(OC[C@@]34CCCN3C[C@H](F)C4)nc3c(F)c(-c4cc(O)cc(Cl)c4C4CC4)ccc13)C2 [Compound 326] | > 1 µM
C=CC(=O)N1C2CCC1CN(c1nc(OC[C@@]34CCCN3C[C@H](F)C4)nc3c(F)c(-c4cc(O)cc5ccc(F)c(F)c45)ncc13)C2 [Compound 306, 1-[3-[7-(7,8-difluoro-3-hydroxy-1-naphthyl)-8-fluoro-2-[[(2R,8S)-2-fluoro-1,2,3,5,6,7-hexahydropyrrolizin-8-yl]methoxy]pyrido[4,3-d]pyrimidin-4-yl]-3,8-diazabicyclo[3.2.1]octan-8-yl]prop-2-en-1-one] | 0.0015 µM
C=CC(=O)N1C2CCC1CC(c1nc(OC[C@@]34CCCN3C[C@H](F)C4)nc3c(F)c(-c4cc(O)cc5ccc(F)c(F)c45)ncc13)C2 (stereo partly drawn) [Compound 333] | 1.75 µM
C#Cc1c(F)ccc2cccc(-c3ncc4c(N5CC6CCC(C5)N6C(=O)C=C)nc(OCC56CCCN5CCC6)nc4c3F)c12 [Compound 303, 1-[3-[7-(8-ethynyl-7-fluoro-1-naphthyl)-8-fluoro-2-(1,2,3,5,6,7-hexahydropyrrolizin-8-ylmethoxy)pyrido[4,3-d]pyrimidin-4-yl]-3,8-diazabicyclo[3.2.1]octan-8-yl]prop-2-en-1-one] | 0.0006 µM
C=C(F)C(=O)N1C2CCC1CN(c1nc(OC[C@@]34CCCN3C[C@H](F)C4)nc3c(F)c(-c4cc(O)cc(Cl)c4C4CC4)ccc13)C2 [Compound 307, 1-[3-[7-(3-chloro-2-cyclopropyl-5-hydroxy-phenyl)-8-fluoro-2-[[(2R,8S)-2-fluoro-1,2,3,5,6,7-hexahydropyrrolizin-8-yl]methoxy]quinazolin-4-yl]-3,8-diazabicyclo[3.2.1]octan-8-yl]-2-fluoro-prop-2-en-1-one] | 0.126 µM

Same assay, conditions: 168 h, Table 4, 7 day, mean, read-out: MIA PaCa-2 IC50 (μM) 7 day Mean

IC50 | Compound
> 1 µM | Oc1cc(Cl)c(C2CC2)c(-c2cnc3c(N4CCNCC45CC5)nc(OC[C@@]45CCCN4C[C@H](F)C5)nc3c2)c1 [Compound 414, 3-chloro-4-cyclopropyl-5-[4-(4,7-diazaspiro[2.5]octan-4-yl)-2-[[(2R,8S)-2-fluoro-1,2,3,5,6,7-hexahydropyrrolizin-8-yl]methoxy]pyrido[3,2-d]pyrimidin-7-yl]phenol]
> 1 µM | Oc1cc(Cl)c(C2CC2)c(-c2ncc3c(C4CCNCC4)nc(OC[C@@]45CCCN4C[C@H](F)C5)nc3c2F)c1 [Compound 433]
> 1 µM | N#C[C@H]1CNCCN1c1nc(OC[C@@]23CCCN2C[C@H](F)C3)nc2cc(F)c(-c3cccc4cccc(Cl)c34)cc12 [Compound 407, (2R)-1-[6-(8-chloro-1-naphthyl)-7-fluoro-2-[[(2R,8S)-2-fluoro-1,2,3,5,6,7-hexahydropyrrolizin-8-yl]methoxy]quinazolin-4-yl]piperazine-2-carbonitrile]
> 1 µM | Oc1cc(Cl)c(C2CC2)c(-c2cnc3c(N4CCNC5(CC5)C4)nc(OC[C@@]45CCCN4C[C@H](F)C5)nc3c2)c1 [Compound 410]
> 1 µM | Oc1cc(Cl)c(C2CC2)c(-c2ccc3c(N4C[C@H]5C[C@@H]4CN5)nc(OC[C@@]45CCCN4C[C@H](F)C5)nc3c2F)c1 [Compound 424, 3-chloro-4-cyclopropyl-5-[4-[(1R,4R)-2,5-diazabicyclo[2.2.1]heptan-2-y1]-8-fluoro-2-[[(2R,8S)-2-fluoro-1,2,3,5,6,7-hexahydropyrrolizin-8-yl]methoxy]quinazolin-7-yl]phenol]
6.74 µM | CC1(c2nc(OC[C@@]34CCCN3C[C@H](F)C4)nc3c(F)c(-c4cc(O)cc5ccc(F)c(F)c45)ncc23)CCNCC1 [Compound 444]
> 1 µM | F[C@H]1CN2CCC[C@@]2(COc2cc(N3C[C@H]4C[C@@H]3CN4)c3ncc(-c4cccc5cccc(Cl)c45)cc3n2)C1 [Compound 422, 7-(8-chloro-1-naphthyl)-4-[(1R,4R)-2,5-diazabicyclo[2.2.1]heptan-2-y1]-2-[[(2R,8S)-2-fluoro-1,2,3,5,6,7-hexahydropyrrolizin-8-yl]methoxy]-1,5-naphthyridine]
> 1 µM | C[C@@H]1CNCCN1c1nc(OC[C@@]23CCCN2C[C@H](F)C3)nc2cc(-c3c(O)cccc3C3CC3)cnc12 [Compound 413]

Compound | IC50
Oc1cc(Cl)c(C2CC2)c(-c2ccc3c(N4CC5CCC(C4)N5)nc(OC[C@@]45CCCN4C[C@H](F)C5)nc3c2)c1 [Compound 428, 3-chloro-4-cyclopropyl-5-[4-(3,8-diazabicyclo[3.2.1]octan-3-y1)-2-[[(2R,8S)-2-fluoro-1,2,3,5,6,7-hexahydropyrrolizin-8-yl]methoxy]quinazolin-7-yl]phenol] | > 1 µM
